Assay results: patent publication US7211574B2, “Selective D1/D5 receptor antagonists for the treatment of obesity and CNS disorders” (Schering Corporation, priority 2002, dated 2007)
Read-outs that look alike come from different tables or passages of the source.

Tests used:
[1] = molecular target: T1, human D2 (long variant) receptor (Homo sapiens, UniProt P14416); assay: radioligand binding competition assay, D2; settings: membranes of Ltk- cells expressing D2 (long variant); 0.2 nM [3H] Methylspiperone; 1 hour at room temperature
T1 construct: expressed in transfected cells; host or cells: Ltk- cells (mouse fibroblast line), membrane preparation
Experimental: (§1) Affinity values (Ki) of compounds at human D1 and D2 receptors were ascertained using radioligand binding competition assays. Ltk- cells expressing D1 and D2 (long variant) receptors were lysed in hypotonic buffer for membrane preparation. Membranes were incubated with various concentrations of test compound and 1 nM [3H] of a compound of formula III and 0.2 nM [3H] Methylspiperone for D1 and D2 assays, respectively. Non-specific binding was defined as binding in the presence of 10 micromolar of a compound of formula III for D1 assays and 10 micromolar butaclamol for […]. Following incubation to equilibrium (1 hour at room temperature), bound radioligand was separated from free by rapid filtration. Bound radioactivity on the dried filters was quantified by liquid scintillation counting.

human D1 receptor = molecular target: T2, human D1 receptor (Homo sapiens, UniProt P21728); assay: radioligand binding competition assay, D1
T2 construct: expressed in transfected cells; host or cells: Ltk- cells (mouse fibroblast line), membrane preparation
Experimental: as §1

[2] = membranes of Ltk- cells expressing D1, 1 nM [3H] compound of formula III, 1 hour at room temperature, read-out: D1 (Ki)

T2 sequence (P21728 whole entry): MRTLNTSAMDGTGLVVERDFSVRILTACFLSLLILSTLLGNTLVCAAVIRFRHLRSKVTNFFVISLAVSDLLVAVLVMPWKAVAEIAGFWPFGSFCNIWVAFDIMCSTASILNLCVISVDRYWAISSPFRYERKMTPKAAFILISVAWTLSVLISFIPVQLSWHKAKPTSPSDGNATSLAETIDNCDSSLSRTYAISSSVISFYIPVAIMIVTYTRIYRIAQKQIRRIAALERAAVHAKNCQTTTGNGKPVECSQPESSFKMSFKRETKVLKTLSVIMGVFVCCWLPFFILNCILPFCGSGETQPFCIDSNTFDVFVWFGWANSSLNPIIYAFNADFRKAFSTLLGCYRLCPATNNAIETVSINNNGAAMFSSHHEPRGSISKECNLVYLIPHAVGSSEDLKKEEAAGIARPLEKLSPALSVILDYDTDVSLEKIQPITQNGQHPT

SMILES | Ki [1] | Ki (human D1 receptor) | Ki (human D1 receptor; [2])
CN1CCc2cc(Cl)c3[nH]c(O)nc3c2[C@H]2c3ccccc3CC[C@@H]21 [Compound 16A] | 1020 nM | 7 nM | –
O=c1[nH]c2c(Cl)cc3c(c2s1)[C@@H](c1ccccc1)CNCC3 [Compound 26B] | 3200 nM | – | 1080 nM
CN1CCc2cc(Cl)c3[nH]nnc3c2[C@H]2c3ccccc3CC[C@@H]21 [Compound 15A] | 1530 nM | – | 146 nM
CN1CCc2cc(Cl)c3[nH]c(O)nc3c2[C@@H](c2ccccc2)C1 [Compound 16B] | – | – | 350 nM
CN1CCc2cc(Cl)c3[nH]c(=O)[nH]c3c2[C@H]2c3cccc(Br)c3CC[C@@H]21 [Compound 16C] | 172 nM | – | 6.1 nM
Oc1nc2c(Cl)cc3c(c2[nH]1)[C@H]1c2ccccc2CC[C@@H]1NCC3 [Compound 18A] | 3270 nM | 16.5 nM | –
CN1CCc2cc(Cl)c3[nH]ncc3c2[C@@H](c2ccccc2)C1 [Compound 4] | 3550 nM | – | 14 nM
Cc1cc2c3c(cc(Cl)c2[nH]1)CCN(C)[C@H]1CCc2ccccc2[C@H]31 [Compound 8] | 232 nM | 24.7 nM | –
CN1CCc2cc(Cl)c3nc(O)sc3c2[C@@H](c2ccccc2)C1 [Compound 25B] | 2890 nM | – | 115 nM
Clc1cc2c(c3cn[nH]c13)[C@@H](c1ccccc1)CNCC2 [Compound 6] | 5010 nM | – | 183 nM
O=c1[nH]c2c(Cl)cc3c(c2s1)[C@H]1c2ccccc2CC[C@@H]1NCC3 [Compound 26A] | 661 nM | 6.5 nM | –
CN1CCc2cc(Cl)c3[nH]c(=O)[nH]c3c2[C@H]2c3cccc(-c4ccccc4)c3CC[C@@H]21 [Compound 27] | 336 nM | – | 1.9 nM
O=c1[nH]c2c(Cl)cc3c(c2[nH]1)[C@H]1c2cccc(Br)c2CC[C@@H]1NCC3 [Compound 18C] | 648 nM | – | 11.3 nM
CN1CCc2cc(Cl)c3[nH]c(=S)[nH]c3c2[C@@H](c2ccccc2)C1 [Compound 17B] | – | – | 1790 nM
CN1CCc2cc(Cl)c3[nH]c(=O)sc3c2[C@H]2c3ccccc3CC[C@@H]21 [Compound 25A] | 257 nM | 2.1 nM | –
Oc1nc2c(Cl)cc3c(c2[nH]1)[C@@H](c1ccccc1)CNCC3 [Compound 18B] | – | – | 1900 nM
CN1CCc2cc(Cl)c3[nH]cnc3c2[C@H]2c3ccccc3CC[C@@H]21 [Compound 13A] | 984 nM | – | 248 nM
CN1CCc2cc(Cl)c3[nH]c(=S)[nH]c3c2[C@H]2c3ccccc3CC[C@@H]21 [Compound 17A] | 1040 nM | 40 nM | –
